Source: ChEMBL document CHEMBL1201862, “PubChem BioAssay data set” (2004)
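Cells were grown in 96-well plates and exposed to each compound for 48 hours at five concentrations; endpoints were interpolated linearly between bracketing concentrations, or set to the highest concentration if not reached. GI50 is the concentration that inhibits growth by half.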 Activity calls are given as the source filed them. Rule as the data show it: active = GI50 up to about 1.1 µM and inactive = higher.

Assays:
Test in all cases: NCI tumour cell line growth inhibition, 48 h
SNB-75 = system: SNB-75
M14 = system: M14
U-251 = system: U-251
PC-3 = system: PC-3
A498 = system: A498
NCI-H23 = system: NCI-H23
LOX IMVI = system: LOX IMVI
SF-539 = system: SF-539
SK-MEL-28 = system: SK-MEL-28
OVCAR-4 = system: OVCAR-4
786-0 = system: 786-0
MOLT-4 = system: MOLT-4
Malme-3M = system: Malme-3M
OVCAR-8 = system: OVCAR-8
OVCAR-5 = system: OVCAR-5
HOP-92 = system: HOP-92
UACC-257 = system: UACC-257
HL-60 = system: HL-60
SR = system: SR
CAKI-1 = system: CAKI-1

Row | Structure (SMILES) | GI50 (SNB-75) | GI50 (M14) | GI50 (U-251) | GI50 (PC-3) | GI50 (A498) | GI50 (NCI-H23) | GI50 (LOX IMVI) | GI50 (SF-539) | GI50 (SK-MEL-28) | GI50 (OVCAR-4) | GI50 (786-0) | GI50 (MOLT-4) | GI50 (Malme-3M) | GI50 (OVCAR-8) | GI50 (OVCAR-5) | GI50 (HOP-92) | GI50 (UACC-257) | GI50 (HL-60) | GI50 (SR) | GI50 (CAKI-1)
1 | CCn1c(-c2c(Cl)cc(O)cc2Cl)cc2c(Cl)cc(O)cc21 | 4.18 µM (inactive) | 6.05 µM (inactive) | 4.03 µM (inactive) | 9.04 µM (inactive) | 13.9 µM (inactive) | 7.78 µM (inactive) | 6.38 µM (inactive) | 3.24 µM (inactive) | 2.3 µM (inactive) | 4.85 µM (inactive) | 4.66 µM (inactive) | 8.87 µM (inactive) | 14 µM (inactive) | 4.59 µM (inactive) | 8.97 µM (inactive) | 13.8 µM (inactive) | 11.7 µM (inactive) | 3.43 µM (inactive) | 5.45 µM (inactive) | 6.14 µM (inactive)
2 | O=P(O)(CCP(=O)(O)c1ccccc1)c1ccccc1 | > 100 µM (inactive) | > 100 µM (inactive) | > 100 µM (inactive) | > 100 µM (inactive) | > 100 µM (inactive) | > 100 µM (inactive) | > 100 µM (inactive) | > 100 µM (inactive) | > 100 µM (inactive) | > 100 µM (inactive) | > 100 µM (inactive) | > 100 µM (inactive) | > 100 µM (inactive) | > 100 µM (inactive) | > 100 µM (inactive) | > 100 µM (inactive) | > 100 µM (inactive) | > 100 µM (inactive) | > 100 µM (inactive) | > 100 µM (inactive)
3 | CC(=O)OCC1OC(OCCCOP(=O)(OCCC#N)OCC2OC(n3cnc4c(N)ncnc43)C(OC(=O)c3ccccc3)C2OC(=O)c2ccccc2)C(OC(C)=O)C(OC(C)=O)C1OC(C)=O (stereo not given) | > 75 µM (inactive) | > 100 µM (inactive) | > 100 µM (inactive) | > 100 µM (inactive) | > 100 µM (inactive) | > 100 µM (inactive) | > 100 µM (inactive) | > 100 µM (inactive) | > 100 µM (inactive) | > 100 µM (inactive) | > 100 µM (inactive) | > 100 µM (inactive) | 1.06 µM (active) | > 100 µM (inactive) | > 100 µM (inactive) | > 100 µM (inactive) | > 100 µM (inactive) | > 100 µM (inactive) | > 100 µM (inactive) | > 100 µM (inactive)
4 | CC(=O)SC(C[N+](=O)[O-])c1ccccc1 (stereo not given) | 2.29 µM (inactive) | 3.84 µM (inactive) | 3.79 µM (inactive) | 10.7 µM (inactive) | 5.43 µM (inactive) | 12 µM (inactive) | 1.65 µM (inactive) | 2.27 µM (inactive) | 5.55 µM (inactive) | 1.76 µM (inactive) | 3.95 µM (inactive) | 1.72 µM (inactive) | 16.6 µM (inactive) | 11.8 µM (inactive) | 3.8 µM (inactive) | 12.6 µM (inactive) | 11.3 µM (inactive) | 3.87 µM (inactive) | 2.22 µM (inactive) | 14 µM (inactive)
5 | COc1ccc(-c2cc(-c3ccccc3)nc(/N=C\c3ccccc3)n2)c(O)c1 | > 100 µM (inactive) | > 100 µM (inactive) | 10.3 µM (inactive) | 7 µM (inactive) | > 100 µM (inactive) | > 100 µM (inactive) | 8.05 µM (inactive) | > 100 µM (inactive) | > 100 µM (inactive) | > 41.9 µM (inactive) | > 100 µM (inactive) | 4.04 µM (inactive) | > 80.4 µM (inactive) | > 70.1 µM (inactive) | > 100 µM (inactive) | > 100 µM (inactive) | > 100 µM (inactive) | 2.71 µM (inactive) | 3.68 µM (inactive) | 3.02 µM (inactive)
6 | CCN(CC)CCCNc1ccc2nnn3c4ccc(O)cc4c(=O)c1c23 | 7.48 µM (inactive) | 9.27 µM (inactive) | 2.33 µM (inactive) | 6.5 µM (inactive) | 8.97 µM (inactive) | 11.2 µM (inactive) | 2.9 µM (inactive) | 10.3 µM (inactive) | 18 µM (inactive) | 6.35 µM (inactive) | 5.71 µM (inactive) | 0.385 µM (active) | 13.1 µM (inactive) | 2.97 µM (inactive) | 13.8 µM (inactive) | 14.6 µM (inactive) | 17.9 µM (inactive) | 5.55 µM (inactive) | 1.69 µM (inactive) | 4.08 µM (inactive)
7 | COC(=O)C(=O)C(C(=O)C(N)=O)c1nc2ccc(C(=O)c3ccccc3)cc2nc1O (stereo not given) | 69 µM (inactive) | > 100 µM (inactive) | > 100 µM (inactive) | 75.2 µM (inactive) | > 100 µM (inactive) | > 10 µM (inactive) | > 100 µM (inactive) | 87.1 µM (inactive) | > 100 µM (inactive) | 28.6 µM (inactive) | > 100 µM (inactive) | 54.3 µM (inactive) | > 100 µM (inactive) | 53.8 µM (inactive) | > 100 µM (inactive) | > 100 µM (inactive) | > 100 µM (inactive) | 84.7 µM (inactive) | 27.7 µM (inactive) | 56 µM (inactive)
8 | CCN(CC)c1ccc(/C=C/C2=NN(c3cccc(S(=O)(=O)O)c3)C3(C2)SCC(=O)N3c2nc3ccccc3s2)cc1 (stereo not given) | 74.3 µM (inactive) | 41.8 µM (inactive) | 25.1 µM (inactive) | 25.8 µM (inactive) | 27.5 µM (inactive) | 37.2 µM (inactive) | 45.6 µM (inactive) | 33 µM (inactive) | 80.4 µM (inactive) | 23.4 µM (inactive) | 63.8 µM (inactive) | 22 µM (inactive) | 24.7 µM (inactive) | 33.6 µM (inactive) | > 100 µM (inactive) | 44.9 µM (inactive) | 30.5 µM (inactive) | 24 µM (inactive) | 26.4 µM (inactive) | 76.6 µM (inactive)
9 | CCOP(=O)(OCC)OC1c2[nH]cc(C(=O)OCc3ccccc3)c2-c2cc(C(=O)OC)[nH]c2C1OC (stereo not given) | 13.2 µM (inactive) | 9.08 µM (inactive) | 11.4 µM (inactive) | 4.94 µM (inactive) | 10.6 µM (inactive) | 13.4 µM (inactive) | 4.56 µM (inactive) | 8.45 µM (inactive) | 4.94 µM (inactive) | 6.15 µM (inactive) | 7.76 µM (inactive) | 3.58 µM (inactive) | 9.06 µM (inactive) | 12.8 µM (inactive) | 37 µM (inactive) | 4.28 µM (inactive) | 6.79 µM (inactive) | 6.15 µM (inactive) | 7.6 µM (inactive) | 20.2 µM (inactive)
10 | O=C1C=C(c2ccccc2)O/C1=C\C(=O)c1ccc(Cl)cc1 | 4.84 µM (inactive) | 19.6 µM (inactive) | 16.3 µM (inactive) | 16.7 µM (inactive) | 80.2 µM (inactive) | 25.5 µM (inactive) | 16.3 µM (inactive) | 57.7 µM (inactive) | 19.9 µM (inactive) | 21.9 µM (inactive) | 14.3 µM (inactive) | 20.5 µM (inactive) | 13.6 µM (inactive) | 22.6 µM (inactive) | 24.3 µM (inactive) | 19.2 µM (inactive) | 18.2 µM (inactive) | 2.18 µM (inactive) | 11.3 µM (inactive) | 18.1 µM (inactive)
11 | CC(Oc1ccccc1Cl)C(=O)NN1C(=O)CC(=O)NC1=S (stereo not given) | > 100 µM (inactive) | > 100 µM (inactive) | > 100 µM (inactive) | > 100 µM (inactive) | > 100 µM (inactive) | > 100 µM (inactive) | 61.9 µM (inactive) | > 100 µM (inactive) | > 100 µM (inactive) | > 100 µM (inactive) | > 100 µM (inactive) | > 100 µM (inactive) | > 100 µM (inactive) | > 100 µM (inactive) | > 100 µM (inactive) | > 100 µM (inactive) | > 100 µM (inactive) | 9.23 µM (inactive) | > 100 µM (inactive) | > 100 µM (inactive)
12 | O=C1c2cc(Cc3ccccc3)c(=O)c(Cc3ccccc3)cc2C(=O)c2cc(Cc3ccccc3)c(=O)c(Cc3ccccc3)cc21 | > 100 µM (inactive) | > 100 µM (inactive) | > 100 µM (inactive) | > 100 µM (inactive) | > 100 µM (inactive) | > 100 µM (inactive) | > 100 µM (inactive) | > 100 µM (inactive) | > 100 µM (inactive) | > 100 µM (inactive) | > 100 µM (inactive) | 97.3 µM (inactive) | > 100 µM (inactive) | > 100 µM (inactive) | > 100 µM (inactive) | > 100 µM (inactive) | > 100 µM (inactive) | > 100 µM (inactive) | > 100 µM (inactive) | > 100 µM (inactive)
13 | O=C1C(CN2CCCC2)CCC1CN1CCCC1 (stereo not given) | 17.9 µM (inactive) | 15.8 µM (inactive) | > 100 µM (inactive) | 23.7 µM (inactive) | > 100 µM (inactive) | 20.7 µM (inactive) | 20.8 µM (inactive) | 19.5 µM (inactive) | 18.7 µM (inactive) | 20.7 µM (inactive) | 15.8 µM (inactive) | 5.31 µM (inactive) | 15.1 µM (inactive) | 18.3 µM (inactive) | > 41.3 µM (inactive) | 14.4 µM (inactive) | 16.8 µM (inactive) | 2.42 µM (inactive) | 12.9 µM (inactive) | 11 µM (inactive)
14 | C/C(=C\COc1cc(O)c2c(c1)C(=O)c1cc(C)cc(O)c1C2=O)CCC1OC1(C)C (stereo not given) | 28.2 µM (inactive) | > 100 µM (inactive) | 63.8 µM (inactive) | > 100 µM (inactive) | > 100 µM (inactive) | > 100 µM (inactive) | > 100 µM (inactive) | 74 µM (inactive) | > 100 µM (inactive) | 37.8 µM (inactive) | 58.2 µM (inactive) | 7.85 µM (inactive) | > 100 µM (inactive) | 47.9 µM (inactive) | > 100 µM (inactive) | 29.4 µM (inactive) | > 100 µM (inactive) | > 10 µM (inactive) | 13.9 µM (inactive) | 21 µM (inactive)
